# Key:
# [1] = test system: A2058 (human melanoma) cell line; assay: Cell viability assay (CELL-TITER-GLO), A2058; type: cell-based; conditions: A2058 cells, 48 hour treatment, 1 nM to 1 μM
# [2] = test system: U937 (human leukemic monocyte lymphoma) cell line; assay: Cell viability assay (CELL-TITER-GLO), U937; type: cell-based; conditions: U-937, U937 cells, 48 hour treatment, 1 nM to 1 μM
# [3] = test system: MDA-MB231 tumor cell line (Breast); assay: Cell profiling, MDA-MB231; type: cell-based; conditions: Homo sapiens, MDA-MB-231
# Protocol: (§1) Cell viability assays were run using standard protocols known to those of skill in art. Cells were plated in 96 well plates at the density of 3,000-10,000 cells per well. Twenty four hours later, cells were treated with increasing concentration of test compounds (1 nM to 1 μM). After another 48 hour, cell survival was measured using CELL-TITER-GLO® reagent (Promega) following the protocol provided by the manufacture. The IC50 value was determined as the concentration of test compound that kills 50% of the cell population.
# [4] = test system: MDA-MB435 tumor cell line (Breast); assay: Cell profiling, MDA-MB435; type: cell-based; conditions: Homo sapiens, MDA-MB-435
# Protocol: as §1
# [5] = test system: Colo205 tumor cell line (Colon); assay: Cell profiling, Colo205; type: cell-based; conditions: Homo sapiens, COLO 205
# Protocol: as §1
# [6] = test system: DLD-1 tumor cell line (Colon); assay: Cell profiling, DLD-1; type: cell-based; conditions: Homo sapiens; DLD-1, Colon
# Protocol: as §1
# [7] = test system: HT29 tumor cell line (Colon); assay: Cell profiling, HT29; type: cell-based; conditions: Homo sapiens, HT-29
# Protocol: as §1
# [8] = test system: Lovo tumor cell line (Colon); assay: Cell profiling, Lovo; type: cell-based; conditions: Homo sapiens
# Protocol: as §1
# [9] = test system: T98G tumor cell line (Glial Cells); assay: Cell profiling, T98G; type: cell-based; conditions: Homo sapiens
# Protocol: as §1
# [10] = test system: HCC1437 tumor cell line (Lung); assay: Cell profiling, HCC1437; type: cell-based
# Protocol: as §1
# [11] = test system: HCC44 tumor cell line (Lung); assay: Cell profiling, HCC44; type: cell-based; conditions: Homo sapiens
# Protocol: as §1
# [12] = test system: NCI-H226 tumor cell line (Lung); assay: Cell profiling, NCI-H226; type: cell-based; conditions: Homo sapiens
# Protocol: as §1
# [13] = test system: NCI-H460 tumor cell line (Lung); assay: Cell profiling, NCI-H460; type: cell-based; conditions: Homo sapiens
# Protocol: as §1
# [14] = test system: SKMES-1 tumor cell line (Lung); assay: Cell profiling, SKMES-1; type: cell-based; conditions: Homo sapiens, SK-MES-1; SKMES-1, Lung
# Protocol: as §1
# [15] = test system: BxPC3 tumor cell line (Pancreas); assay: Cell profiling, BxPC3; type: cell-based; conditions: Homo sapiens, BXPC-3
# Protocol: as §1
# [16] = test system: MiaPaca-2 tumor cell line (Pancreas); assay: Cell profiling, MiaPaca-2; type: cell-based; conditions: Homo sapiens, MIA PaCa-2; MiaPaca-2, Pancreas
# Protocol: as §1
# [17] = test system: Panc-1 tumor cell line (Pancreas); assay: Cell profiling, Panc-1; type: cell-based; conditions: Homo sapiens; Panc-1, Pancreas
# Protocol: as §1
# [18] = test system: PL45 tumor cell line (Pancreas); assay: Cell profiling, PL45; type: cell-based
# Protocol: as §1
# [19] = test system: SW1990 tumor cell line (Pancreas); assay: Cell profiling, SW1990; type: cell-based; conditions: Homo sapiens
# Protocol: as §1
# [20] = test system: DU145 tumor cell line (Prostate); assay: Cell profiling, DU145; type: cell-based; conditions: Homo sapiens, DU-145
# Protocol: as §1
# [21] = test system: A375 tumor cell line (Skin); assay: Cell profiling, A375; type: cell-based; conditions: Homo sapiens, A-375
# Protocol: as §1
# [22] = test system: G361 tumor cell line (Skin); assay: Cell profiling, G361; type: cell-based; conditions: Homo sapiens, G-361
# Protocol: as §1
# [23] = test system: SKMEL-5 tumor cell line (Skin); assay: Cell profiling, SKMEL-5; type: cell-based; conditions: Homo sapiens, SK-MEL-5; SKMEL-5, Skin
# Protocol: as §1
# [24] = test system: MiaPaca (pancreatic cancer) cells; assay: MiaPaca xenograft model, tumor free animals; type: in vivo, Athymic nude mice; conditions: 20 mg/kg, tail vein injection, 6 injections (days 9, 11, 14, 16, 18, 21), at 35 days post tumor cell injection, 7 mice/group
# Protocol: Animals: Athymic nude mice, female, 6-7 weeks old, 20-25 g. Animals bearing with 180-400 mg tumors were selected for experiment. 7 mice/group.
# Administration: Tail vein injection, 200 μL/mouse, to provide the dose indicated.
# Dosing schedule: 6 injections were given on the days indicated post-tumor cell injection.
# Controls: Vehicle, Compound J at 20 mg/kg.
# Test Compound preparation: Compound J and all test compounds were dissolved in 50% Cremophore/EtOH (1:1) at 10 mg/mL as stock solution. Each compound solution was diluted with saline before injection to the concentration indicated.
# Xenograft Model: MiaPaca (pancreatic cancer) cells
# Dosing schedule: 6 injections were given on days 9, 11, 14, 16, 18 and 21 post-tumor cell injection.
# Test Compounds: Example 23, Example 24, and Example 53, at 20 mg/kg.
# For animals treated with the compound of Example 24 at 20 mg/kg, 7 of 7 animals were tumor free at 35 days post tumor cell injection.
# [25] = test system: A2058 (human melanoma) cell line; assay: Cell viability assay (CELL-TITER-GLO), A2058; type: cell-based; conditions: Table 8 cell profiling, A2058, Skin
# [26] = test system: U937 (human leukemic monocyte lymphoma) cell line; assay: Cell viability assay (CELL-TITER-GLO), U937; type: cell-based; conditions: U-937, Table 8 cell profiling, U937, Blood
smiles,measurement,setting,value
CCC(O)(CC)C(=O)N[C@H]1Cc2ccc3c(c2)C24C5=C(N=C(O5)[C@H](C(C)C)NC1=O)c1ncc(o1)-c1c[nH]c5cccc(c15)-c1cccc2c1NC4O3 (stereo in doubt) [Example 24],IC50,[1],0.105 µM
same,IC50,[2],0.062 µM
same,IC50,[3],234 nM
same,IC50,[4],29 nM
same,IC50,[5],144 nM
same,IC50,[6],515 nM
same,IC50,[7],90 nM
same,IC50,[8],150 nM
same,IC50,[9],67 nM
same,IC50,[10],195 nM
same,IC50,[11],36 nM
same,IC50,[12],104 nM
same,IC50,[13],242 nM
same,IC50,[14],470 nM
same,IC50,[15],213 nM
same,IC50,[16],111 nM
same,IC50,[17],288 nM
same,IC50,[18],113 nM
same,IC50,[19],360 nM
same,IC50,[20],57 nM
same,IC50,[21],162 nM
same,IC50,[22],275 nM
same,IC50,[23],70 nM
same,Tumor-free animals out of 7,[24],7 of 7
same,Tumor-free animals out of 7,[24]; listed as Ex. 24,7/7 (35)
same,IC50,[25],93 nM
same,IC50,[26],44 nM
